Broadly, the viability is a read-out of living cells in per cent, often relative to untreated cells.

The series in a line: in vitro. The conditions noted are these: human, hela cells, % viability.

Turning to `CCCn1cnc2cc(NC(=O)Cn3cc(C(=O)NC4CCCCC4)ccc3=O)ccc21` [CBK286098], the viability at 28.5 h, 10 µM was 96.6%. Turning to `Cc1cc2ccccc2n2c(SCC(=O)NCc3ccco3)nnc12` [CBK265666], the viability at 28.5 h, 10 µM amounted to 107%.

Turning to `CN(C)CCCn1cnc2c1c(=O)[nH]c(=O)n2Cc1ccccc1` [CBK291234], the viability at 28.5 h, 10 µM was found to be 95.3%. Consider `O=C(NC(c1ccc(Cl)cc1)c1ccsc1)C1CCN(CCOc2ccccc2)CC1` (stereo not drawn) [CBK147951], for which the viability at 28.5 h, 10 µM was found to be 101%. For the compound `O=C(CN1CCOCC1)Nc1ccc(S(=O)(=O)N2CCCC2)cc1` [CBK268468], the viability at 28.5 h, 10 µM turned out to be 103%. `Cc1nn(CC(=O)N2CCCCC2)c(=O)c2cc3sccc3n12` [CBK284040]: the viability at 28.5 h, 10 µM is 93.6%.

As to `O=[N+]([O-])c1ccc(CN2CCC(Oc3cncc(OCC4COc5ccccc5O4)n3)C2)cc1` (stereo not drawn) [CBK084369], the viability at 28.5 h, 10 µM amounted to 99.3%. As for `CCn1c(C)c(C)n2c3c(=O)n(CCN4CCOCC4)c(=O)n(C)c3nc12` [CBK269786], the viability at 28.5 h, 10 µM came out at 90.6%. With `Cc1ccc2cc(CNc3ccc(-c4nc5cc(C)ccc5[nH]4)cc3)c(O)nc2c1` [CBK286156], the viability at 28.5 h, 10 µM is 70.8%. On to `O=C1CC[C@@H](NCc2ccoc2)[C@H](c2cc(F)cc(F)c2)N1` [CBK282912], for which the viability at 28.5 h, 10 µM was 96%. Turning to `CN1CCC(N2CCN(C(=O)c3ccccc3Nc3cccc(C(F)(F)F)c3)CC2)CC1` [CBK149097], the viability at 28.5 h, 10 µM came out at 88.7%. For the compound `Fc1cc(Br)ccc1-c1cnn(-c2ccccc2)n1` [CBK112925], the viability at 28.5 h, 10 µM was 103%. On to `OCCN1CCN(CC(O)COCC2COc3ccccc3O2)CC1` (stereo not drawn) [CBK027374C], for which the viability at 28.5 h, 10 µM stood at 97.3%. As for `NC(=O)c1ccccc1NC(=O)COc1ccccc1` [CBK262599], the viability at 28.5 h, 10 µM came to 85.1%. For the compound `CN(c1cncc(Cl)n1)C1CCN(Cc2ccccc2)CC1` [CBK012767F], the viability at 28.5 h, 10 µM amounted to 77.7%. As for `CCNC(=O)N1CC2(CCN(CCCCC3NC(=O)NC3=O)CC2)c2ccccc21` (stereo not drawn) [CBK126707], the viability at 28.5 h, 10 µM came to 92.2%. Regarding `CC(C)NC(=O)NC(=O)C1CCN(CCCc2ccc(Cl)c(Cl)c2)CC1` [CBK034947], the viability at 28.5 h, 10 µM came to 89.8%. Regarding `CCOC(=O)CC(=O)CSc1nc(N)c2c3c(sc2n1)CCCC3` [CBK264942], the viability at 28.5 h, 10 µM came out at 120%. The same measure, in the same setting: the figure for `Cc1nc(=O)c(-c2ccccc2)c(C)n1-c1ccc2cn[nH]c2c1` [CBK288193] is 100%; for `COCCn1cc(C(=O)N2CCCC2c2cc(C)on2)c2ccccc21` (stereo not drawn) [CBK305289] it is 90.4%; for `c1ccc(CNc2c(-c3ccco3)nc3cnccn23)cc1` [CBK283933] it is 90.6%. Still for that read-out and setting: as for `Brc1ccc2nc(NCc3ccccn3)nc(-c3ccccc3)c2c1` [CBK266736], the figure is 89.3%; as for `c1ccc2c(c1)n[n+]1c3ccccc3[n-]n21` [CBK260974], 85.7%; as for `CCOc1ccc(NC(=O)c2ccc(CN3CCOCC3)cc2)cc1` [CBK033557], 89.7%. The same measure, in the same setting: as for `Cc1nn(C)c(S(=O)(=O)N2CCOCC2c2cccc(F)c2)c1C(F)F` (stereo not drawn) [CBK304729], the figure is 86.3%.

On to `N=c1n(CC(=O)O)c2ccccc2n1Cc1ccc(Cl)cc1` [CBK262897B], for which the viability at 28.5 h, 10 µM came to 89.5%. Turning to `N=c1n(CCCOc2ccc(Br)cc2)c2ccccc2n1CC(N)=O` [CBK268786C], the viability at 28.5 h, 10 µM was found to be 86.9%. `Cc1noc(C2=CC=CN3C2=NNC32CCNCC2)n1` [CBK288058]: the viability at 28.5 h, 10 µM was 91%. For the compound `COc1cc(CNc2nn[nH]n2)ccc1OCc1ccc(F)cc1Cl` [CBK269536], the viability at 28.5 h, 10 µM stood at 90.6%.

Turning to `CS(=O)(=O)N1CCCc2cc(-c3csc(-c4cnccn4)n3)ccc21` [CBK305239], the viability at 28.5 h, 10 µM was 95.4%. As for `COc1ccc(-c2cc(-c3c(O)ccc4c(C)cc(=O)oc34)nc(N)n2)cc1OC` [CBK074619], the viability at 28.5 h, 10 µM was found to be 85%. `Nc1ccc2cc(-c3cccc(OCc4ccccc4)c3)cnc2n1` [CBK081172]: the viability at 28.5 h, 10 µM amounted to 108%. For the compound `CCc1nc2ccc(C(=O)NCCN3CCNC3=O)cn2c1N(CCN(C)C)CC1CC1` [CBK145469], the viability at 28.5 h, 10 µM came out at 89.2%. As to `CCN(CCO)c1ccc(Nc2nc(Br)cn3ccnc23)cc1` [CBK037475], the viability at 28.5 h, 10 µM stood at 98.9%. Same read-out and setting: as for `CCCn1cnc2c1CN(C(C)=O)[C@H](C(=O)OC)C2` [CBK288995], the figure is 101%; as for `O=C(c1ccc(-c2ccccc2)cc1)c1no[n+]([O-])c1C(=O)c1ccc(-c2ccccc2)cc1` [CBK261754], 106%. For `O=C(Cc1ccc(Cl)cc1)N1CCc2c([nH]c3ccccc23)C12CCN(Cc1ccc(F)cc1)C2` (stereo not drawn) [CBK059453], the viability at 28.5 h, 10 µM came out at 90.6%. On to `Cc1ccccc1N1C(=O)NC(=O)/C(=C/NCCCn2ccnc2)C1=O` [CBK261829], for which, where the note is “bulk resorufin, single well”, the viability at 28.5 h, 10 µM was 107%. As to `O=C(Nc1cccc(C(=O)O)c1)/C(=C\c1ccc2c(c1)OCO2)NC(=O)c1ccccc1` [CBK263697], the viability at 28.5 h, 10 µM was determined as 113%. As for `Nc1ccc(Oc2ccc3nc4c5cc(I)ccc5c5ccc(I)cc5c4nc3c2)cc1` [CBK261978], the viability at 28.5 h, 10 µM is 87.6%. Consider `CCc1nc2ccc(C(=O)N(C)CCN(C)C)cn2c1N(CC)Cc1cccc(Br)c1` [CBK146962], for which the viability at 28.5 h, 10 µM was determined as 93.1%. On to `CCC(C)(C)c1ccc(S(=O)(=O)N2CCN(Cc3ccc(C(C)=O)cc3)CC2)cc1` [CBK062826], for which the viability at 28.5 h, 10 µM turned out to be 95.1%.

As to `Cc1nc(-c2cc3c(s2)CCN(CC(O)COCc2ccco2)C3)cs1` (stereo not drawn) [CBK304460], the viability at 28.5 h, 10 µM was found to be 89.4%. For `CCCN(C(=O)CCc1ccc(C)cc1C)C1CCNCC1` [CBK304302C], the viability at 28.5 h, 10 µM was 109%. As for `COc1ccc(C(=O)N2CCC3(CCCN(C(=O)Cn4cc(C)c(=O)[nH]c4=O)C3)C2)cc1OC` (stereo not drawn) [CBK137085], the viability at 28.5 h, 10 µM came out at 107%. Regarding `CC(CC(=O)O)CC(=O)Nc1ccc(C(=O)O)cc1` (stereo not drawn) [CBK265560], the viability at 28.5 h, 10 µM came out at 103%.

With `CN(Cc1cnn(C)c1)C(=O)COCc1nc2cc(F)ccc2[nH]1` [CBK306687], the viability at 28.5 h, 10 µM is 94.3%. Take `c1ccc(Oc2ccccc2-c2cc(N3CCN(c4ccccn4)CC3)ncn2)cc1` [CBK091083]: the viability at 28.5 h, 10 µM was 91.5%. As for `COc1ccc(Cl)cc1NC(=O)CSc1nc2cc3ccccc3cc2[nH]1` [CBK268410], the viability at 28.5 h, 10 µM amounted to 82.1%. Regarding `CN1CCN(c2nccnc2-c2cccnc2)CC1` [CBK036612], the viability at 28.5 h, 10 µM worked out at 89.8%. As for `Cc1nc2c(c(N(C)C)n1)CCN(C(=O)C(C)n1cc(Cl)cn1)C2` (stereo not drawn) [CBK307293], the viability at 28.5 h, 10 µM came out at 110%.

Consider `COc1cccc2c3c([nH]c12)CCCC3` [CBK000331], for which the viability at 28.5 h, 10 µM was found to be 95.8%. Consider `C[C@H]1CN2CCCC2CN1Cc1ccc2c(c1)CCO2` (stereo partly drawn) [CBK285443], for which the viability at 28.5 h, 10 µM was 104%. The same measure, in the same setting: the figure for `CCn1c(SCC(=O)Nc2ccccc2[N+](=O)[O-])nnc1-c1cc(Br)ccc1O` [CBK268201] is 101%.

For the compound `COc1ccccc1OCC(=O)NNC(=O)c1cnccn1` [CBK262617], the viability at 28.5 h, 10 µM came out at 109%. Regarding `CCCN(CC(=O)NCc1ccco1)Cc1nnc(-c2ccco2)o1` [CBK305302], the viability at 28.5 h, 10 µM came out at 111%. In the case of `O=C(c1ccc(F)cc1)N1CCC(c2cc3cccnc3[nH]2)CC1` [CBK285001], the viability at 28.5 h, 10 µM came to 96.8%. With `CC(NC(=O)CCc1ccncc1)c1nc2ccccc2s1` (stereo not drawn) [CBK281666], the viability at 28.5 h, 10 µM is 98.9%.

Consider `CCCNc1nc(-c2ccc(C)c(C)c2)cn2ccnc12` [CBK066627], for which the viability at 28.5 h, 10 µM is 101%.

As to `CC1CCc2n[nH]c(C(=O)N3CCC(O)C(C)C3)c2C1` (stereo not drawn) [CBK283207], the viability at 28.5 h, 10 µM turned out to be 107%.

In the case of `Cc1ccc(NS(=O)(=O)c2ccc(NC(=O)c3ccc(CN4CCOCC4)cc3)cc2)c(C)c1` [CBK264815], the viability at 28.5 h, 10 µM came out at 94.5%. Still for that read-out and setting: as for `CCN1CCC2(CC1)CN(CC(N)=O)c1ccccc12` [CBK126798], the figure is 80.4%.

For `COc1nc2ccn(CCC3CCOC3)c(=O)c2cc1C#N` (stereo not drawn) [CBK307343], the viability at 28.5 h, 10 µM was 101%. Still for that read-out and setting: the figure for `Cc1cc(-c2cn3cc(C(=O)NCCO)nc3c(=O)n2C)c(C)o1` [CBK307288] is 89.4%; for `CCc1noc(C)c1C(=O)N1CC[C@@H](CNC(=O)N2CCCC2)[C@H](O)C1` [CBK307222] it is 88.3%.

As for `NC(=O)NS(=O)(=O)c1ccc(NC(=S)NC(=O)c2ccco2)cc1` [CBK261068], the viability at 28.5 h, 10 µM was 117%. Turning to `CC(=O)Nc1ccc(Nc2cc(-c3ccc(Cl)cc3)ncn2)cc1` [CBK090720], the viability at 28.5 h, 10 µM turned out to be 93.6%. Regarding `O=C(Nc1cccc(C(=O)O)c1)/C(=C\c1ccc2c(c1)OCO2)NC(=O)c1ccc(Br)o1` [CBK263720], the viability at 28.5 h, 10 µM amounted to 99%. On the same count and under the same terms, as for `Clc1ccc(/C=N/Nc2nnn[nH]2)c(Cl)c1` [CBK262034], the figure is 98%; as for `CCc1c(C(=O)NCc2cccnc2-n2cncn2)cnn1-c1ccc(OC)nn1` [CBK298309], 90.5%.

In the case of `Cc1ccc(CN(CCCn2ccnc2)Cc2ccccc2O)o1` [CBK283189], the viability at 28.5 h, 10 µM is 99.8%. Turning to `O=C(NC(c1ccccc1)c1cccnc1)C1CCN(C(=O)NC2CCCCC2)CC1` (stereo not drawn) [CBK060378], the viability at 28.5 h, 10 µM worked out at 84%. In the case of `COc1ccc2[nH]cc(CC(=O)N3CCCC4(CCN(C(=O)c5cc(F)c(F)cc5F)C4)C3)c2c1` (stereo not drawn) [CBK131562], the viability at 28.5 h, 10 µM worked out at 88.6%. Consider `O=C(O)c1ccc2c(c1)C(=O)N(c1ccc(C3(c4ccc(N5C(=O)c6ccc(C(=O)O)cc6C5=O)cc4)c4ccccc4-c4ccccc43)cc1)C2=O` [CBK261195], for which the viability at 28.5 h, 10 µM amounted to 92.2%. For the compound `COc1cccc(CNCCN2CCOCC2)c1O` [CBK278183C], the viability at 28.5 h, 10 µM stood at 90.2%. Take `CSCCCNC(=O)N1CCNC(=O)C1` [CBK155848]: the viability at 28.5 h, 10 µM stood at 98.3%.

`COc1ccc(C(=O)C2=C(O)C(=O)N(CCN(C)C)C2c2ccncc2)c(C)c1` (stereo not drawn) [CBK264867]: the viability at 28.5 h, 10 µM is 92.5%. On to `O=C(c1ncc(F)cc1F)N1CCCCC1CN1CCOCC1` (stereo not drawn) [CBK305482], for which the viability at 28.5 h, 10 µM came to 102%.

The record behind these values is publication PMC12040169 (PLOS Biology, 2025).
